In US6911432B2, “Drugs, foods or drinks with the use of algae-derived physiologically active substances” (priority 1997, dated 2005):

Columns and labels:
HL-60 cells [1] = experiment: antiproliferation assay, MTT method, absorbance at 590 nm; format: cell-based, human; details: for antiproliferation activity against HL-60 cells (in words): preparations and fractions, compared with control to which water was added
A549 = experiment: antiproliferation assay, MTT method; format: cell-based, human
Protocol: (§1) Each fraction was sterilized by filtration and its 10 μl portion was placed in a well of a 96 well microtiter plate. […] The cell morphology was observed under an optical microscope. […] The absorbance at 590 nm was measured to determine a cell proliferation rate. (2) A 50 mM solution of agarobiose, agarotetraose or agarohexaose obtained in Example 3-(1) was sterilized by filtration and diluted 2-, 4-, 8-, 16-, 32-, 64- and 128-folds with sterilized water. […] [table] The number in Table 3 represents the dilution rate of the dilution added to the group whose absorbance at 590 nm was less than one-half of that of the control group to which water was added. […] Then, for agarobiose, agarotetraose and agarohexaose, the concentrations required for 50% proliferation inhibitory rate (IC50) are calculated based on the change in the absorbance at 590 nm, and are shown in Table 4.

HCT116 = experiment: antiproliferation assay, MTT method; format: cell-based, human
Protocol: as §1

HT-29 = experiment: antiproliferation assay, MTT method; format: cell-based, human
Protocol: as §1

HeLa S3 = experiment: antiproliferation assay, MTT method; format: cell-based, human
Protocol: as §1

HepG2 = experiment: antiproliferation assay, MTT method; format: cell-based, human
Protocol: as §1

MCF7 = experiment: antiproliferation assay, MTT method; format: cell-based, human
Protocol: as §1

MKN45 = experiment: antiproliferation assay, MTT method; format: cell-based, human
Protocol: as §1

RPMI1788 = experiment: antiproliferation assay, MTT method; format: cell-based, human
Protocol: as §1

T-47D = experiment: antiproliferation assay, MTT method; format: cell-based, human
Protocol: as §1

T24 = experiment: antiproliferation assay, MTT method; format: cell-based, human
Protocol: as §1

WiDr = experiment: antiproliferation assay, MTT method; format: cell-based, human
Protocol: as §1

A-172 = experiment: antiproliferation assay, MTT method; format: cell-based
Protocol: as §1

HT-1080 = experiment: antiproliferation assay, MTT method; format: cell-based
Protocol: as §1

HL-60 cells [2] = experiment: viable cell count with Trypan Blue under a microscope; format: cell-based, human; details: final concentration 250 μM or 125 μM
Protocol: Agarobiose, agarotetraose, agarohexaose and agarooctaose (hereinafter, sometimes, these oligosuccharaides are referred to as agarooligosaccharides) obtained in Example 5 were dissolved in water at a concentration of 2.5 mM or 1.25 mM separately, and were sterilized by filtration. HL-60 cells were suspended in RPMI 1640 medium containing 10% fetal bovine serum at a concentration of 2.5×10^5 cells/4.5 ml and to this suspension was added 0.5 ml of each of the oligosaccharide solutions. The resultant mixture were incubated with 5% CO2 at 37° C. for 24 hours or 48 hours. A part of the cell culture was taken up, followed by addition of Trypan Blue thereto and observing under a microscope to count the number of viable cells.
That is, FIG. 14 illustrates the relation between the incubation time and the number of viable cells when HL-60 cells were cultured with addition of one of the oligosaccharides at the final concentration of 250 μM. FIG. 15 illustrates the relation between the incubation time and the number of viable cells when HL-60 cells were cultured with addition of one of the oligosaccharides at the final concentration of 125 μM. In FIGS. 14 and 15, the horizontal axes represent the incubation time (hrs.) and the vertical axes represent the number of viable cells (× 10^5/5 ml). The closed circle (●) represents the addition of water (control), the open diamond (⋄) represents the addition of agarobiose, the open circle (◯) represents the addition of agarotetraose, the open triangle (Δ) represents the addition of agarohexaose and the open square (□) represents the addition of agarooctaose.

iNOS = iNOS expression by western blotting and RT-PCR; format: cell-based; details: protein level by western blotting, messenger RNA level by RT-PCR
Protocol: The confirmation was carried out at protein level by western blotting and at messenger RNA level by RT-PCR. That is, the compounds used in the present invention are useful for treating and preventing diseases that require inhibition of NO production by inhibiting expression of iNOS which is overexpressed by various factors to produce excess NO.

[3] = reaction with L-cysteine or L-lysine in phosphate buffered saline at 37° C., thin layer chromatography; format: physicochemical
Protocol: (2) Agarobiose and agarohexaose obtained in Example 14-(1) were dissolved in water to prepare 100 mM aqueous solutions thereof. To each 25 μl of these solutions was added 50 μl of 100 mM aqueous L-cysteine solution, followed by addition of 925 μl of phosphate buffered saline. Then, the mixture was treated at 37° C. for 1 hour or 16 hours. The same reaction was repeated except that an aqueous solution containing the same concentration of L-lysine was used instead of the aqueous L-cysteine solution.
1 μl of a sample from each reaction was spotted on a silica gel sheet 60 F254, developed with 1-butanol:ethanol:water=5:5:1 and detected by orcinol-sulfate method.

[4] = dilution rate 1 corresponds to 5 mM in medium
[5] = read-out: IC50 (concentration required for 50% proliferation inhibitory rate)

## OC[C@H]1O[C@@H](O[C@H]2[C@H]3OC[C@@H]2OC(O)[C@H]3O)[C@H](O)[C@@H](O)[C@H]1O (mixture of isomers) [Agarobiose, agarobiose]
HL-60 cells [1]; HL-60, 50 mM solution diluted 2- to 128-fold, dilution rate 1 corresponds to 5 mM in the cell culture medium
  dilution rate of the dilution added to the group whose absorbance at 590 nm was less than one-half of that of the control group: 32
HL-60 cells [1]; HL-60, after reaction with L-cysteine at 37° C. for 1 hour
  antiproliferation activity relative to the same concentration of the unreacted saccharide: 1/10
HL-60 cells [1]; HL-60, after reaction with L-cysteine at 37° C. for 16 hours
  antiproliferation activity relative to the same concentration of the unreacted saccharide: 1/10
HL-60 cells [1]; HL-60, after reaction with L-lysine at 37° C. for 16 hours
  antiproliferation activity relative to the same concentration of the unreacted saccharide: 1/10
HL-60 cells [1]; HL-60, agarobiose at 78 μg/ml, 48 hours
  cell proliferation suppressed as compared with the control group: about 86%
HL-60 cells [1]; HL-60, read-out: IC50 (concentration required for 50% proliferation inhibitory rate)
  IC50: 170 µM
HL-60 cells [1]; listed as group 4
  antiproliferation activity against HL-60 cells (in words): an antiproliferation activity was observed
HL-60 cells [1]; listed as group 5
  antiproliferation activity against HL-60 cells (in words): an antiproliferation activity was observed
HL-60 cells [1]; listed as peak at the elution time 8.87 min.
  antiproliferation activity against HL-60 cells (in words): had both activities
HL-60 cells [1]; listed as peak at the elution time 9.40 min.
  antiproliferation activity against HL-60 cells (in words): had both activities
A549; [4]
  dilution rate of the dilution added to the group whose absorbance at 590 nm was less than one-half of that of the control group: 8
A549; [5]
  IC50: 570 µM
HCT116; [4]
  dilution rate of the dilution added to the group whose absorbance at 590 nm was less than one-half of that of the control group: 16
HCT116; [5]
  IC50: 244 µM
HT-29; [4]
  dilution rate of the dilution added to the group whose absorbance at 590 nm was less than one-half of that of the control group: 8
HT-29; [5]
  IC50: 622 µM
HeLa S3; [4]
  dilution rate of the dilution added to the group whose absorbance at 590 nm was less than one-half of that of the control group: 8
HeLa S3; [5]
  IC50: 353 µM
HepG2; [4]
  dilution rate of the dilution added to the group whose absorbance at 590 nm was less than one-half of that of the control group: 8
HepG2; [5]
  IC50: 652 µM
MCF7; [4]
  dilution rate of the dilution added to the group whose absorbance at 590 nm was less than one-half of that of the control group: 16
MCF7; [5]
  IC50: 274 µM
MKN45; [4]
  dilution rate of the dilution added to the group whose absorbance at 590 nm was less than one-half of that of the control group: 8
MKN45; [5]
  IC50: 344 µM
RPMI1788; [4]
  dilution rate of the dilution added to the group whose absorbance at 590 nm was less than one-half of that of the control group: 64
RPMI1788; [5]
  IC50: 44 µM
T-47D; [4]
  dilution rate of the dilution added to the group whose absorbance at 590 nm was less than one-half of that of the control group: 16
T-47D; [5]
  IC50: 210 µM
T24; [4]
  dilution rate of the dilution added to the group whose absorbance at 590 nm was less than one-half of that of the control group: 8
T24; [5]
  IC50: 352 µM
WiDr; [4]
  dilution rate of the dilution added to the group whose absorbance at 590 nm was less than one-half of that of the control group: 8
WiDr; [5]
  IC50: 405 µM
A-172; [4]
  dilution rate of the dilution added to the group whose absorbance at 590 nm was less than one-half of that of the control group: 16
A-172; [5]
  IC50: 289 µM
HT-1080; [4]
  dilution rate of the dilution added to the group whose absorbance at 590 nm was less than one-half of that of the control group: 8
HT-1080; [5]
  IC50: 317 µM
HL-60 cells [2]
  apoptosis corpuscles: apoptosis corpuscles were observed
HL-60 cells [2]; 24 hours or 48 hours
  number of viable cells as compared with the group to which water was added: decreased
iNOS
  inhibition of iNOS expression: inhibit this iNOS expression
[3]; L-cysteine, 1 hour
  spot of the saccharide on thin layer chromatography after reaction: disappeared
[3]; L-cysteine, 16 hours
  spot of the saccharide on thin layer chromatography after reaction: disappeared
[3]; L-lysine, 16 hours
  spot of the saccharide on thin layer chromatography after reaction: disappeared
